Measured values reported in the kinase profiling compilation of Christmann-Franck et al. (2016).

How the values were obtained:
Assay in all cases: KINOMEscan competition binding
Conditions in all cases: compound 10.0 µM
AKT1 (human) = AKT1 (human) (UniProt P31749)
AURKC (human) = AURKC (human) (UniProt Q9UQB9)
MAPK8 (human) = MAPK8 (human) (UniProt P45983)
FES (human) = FES (human) (UniProt P07332)
DSTYK (human) = DSTYK (human) (UniProt Q6XUX3)
MKNK2 (human) = MKNK2 (human) (UniProt Q9HBH9)
CAMK4 (human) = CAMK4 (human) (UniProt Q16566)
ACVRL1 (human) = ACVRL1 (human) (UniProt P37023)
PKN2 (human) = PKN2 (human) (UniProt Q16513)
EPHA3 (human) = EPHA3 (human) (UniProt P29320)
SRPK2 (human) = SRPK2 (human) (UniProt P78362)
NEK1 (human) = NEK1 (human) (UniProt Q96PY6)
ERN1 (human) = ERN1 (human) (UniProt O75460)
PAK7 (human) = PAK7 (human) (UniProt Q9P286)
PDGFRB (human) = PDGFRB (human) (UniProt P09619)
FLT1 (human) = FLT1 (human) (UniProt P17948)
CSNK1G3 (human) = CSNK1G3 (human) (UniProt Q9Y6M4)
NEK11 (human) = NEK11 (human) (UniProt Q8NG66)
EPHA4 (human) = EPHA4 (human) (UniProt P54764)
CDK4 CCND1 (human) = CDK4 CCND1 (human) (UniProt P11802+P24385)
MATK (human) = MATK (human) (UniProt P42679)
CDK11B (human) = CDK11B (human) (UniProt P21127)
CAMKK1 (human) = CAMKK1 (human) (UniProt Q8N5S9)
SRMS (human) = SRMS (human) (UniProt Q9H3Y6)
EPHA7 (human) = EPHA7 (human) (UniProt Q15375)
IRAK1 (human) = IRAK1 (human) (UniProt P51617)
CPK1 (P.falciparum) = system: CPK1 (P.falciparum)
STK32C (human) = STK32C (human) (UniProt Q86UX6)
LCK (human) = LCK (human) (UniProt P06239)
IKBKE (human) = IKBKE (human) (UniProt Q14164)
TNK2 (human) = TNK2 (human) (UniProt Q07912)
RIPK1 (human) = RIPK1 (human) (UniProt Q13546)
MAP3K13 (human) = MAP3K13 (human) (UniProt O43283)
ACVR1 (human) = ACVR1 (human) (UniProt Q04771)
MAP3K12 (human) = MAP3K12 (human) (UniProt Q12852)
MAP4K5 (human) = MAP4K5 (human) (UniProt Q9Y4K4)
OXSR1 (human) = OXSR1 (human) (UniProt O95747)
RPS6KA6 KD2 (human) = RPS6KA6 KD2 (human) (UniProt Q9UK32)
[1] = system: ABL1 (human), P00519 [Y253F]
MAP2K4 (human) = MAP2K4 (human) (UniProt P45985)

Chain of MAP4K5 (human) (Q9Y4K4 whole entry, looked up): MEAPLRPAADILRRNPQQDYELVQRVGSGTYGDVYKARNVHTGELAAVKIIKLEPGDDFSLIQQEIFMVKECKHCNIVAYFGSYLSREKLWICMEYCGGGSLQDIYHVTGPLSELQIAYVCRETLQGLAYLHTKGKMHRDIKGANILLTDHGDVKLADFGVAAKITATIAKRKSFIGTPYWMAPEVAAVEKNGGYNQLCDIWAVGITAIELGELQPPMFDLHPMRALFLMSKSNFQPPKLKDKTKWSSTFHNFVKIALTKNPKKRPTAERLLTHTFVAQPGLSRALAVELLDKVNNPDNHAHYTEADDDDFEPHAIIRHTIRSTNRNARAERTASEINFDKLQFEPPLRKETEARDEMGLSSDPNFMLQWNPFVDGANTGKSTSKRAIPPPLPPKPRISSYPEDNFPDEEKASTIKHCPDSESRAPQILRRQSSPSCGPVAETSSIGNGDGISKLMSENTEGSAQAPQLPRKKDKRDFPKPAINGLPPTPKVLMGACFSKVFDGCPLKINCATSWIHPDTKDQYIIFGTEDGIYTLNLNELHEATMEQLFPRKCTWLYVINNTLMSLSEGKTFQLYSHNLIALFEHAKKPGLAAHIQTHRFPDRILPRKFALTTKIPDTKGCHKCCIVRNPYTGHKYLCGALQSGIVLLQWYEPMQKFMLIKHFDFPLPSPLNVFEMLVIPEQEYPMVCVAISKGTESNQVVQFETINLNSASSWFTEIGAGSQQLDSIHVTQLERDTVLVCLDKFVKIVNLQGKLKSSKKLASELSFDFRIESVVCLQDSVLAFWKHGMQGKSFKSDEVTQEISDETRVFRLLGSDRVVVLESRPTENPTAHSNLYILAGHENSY
Chain of OXSR1 (human) (O95747 whole entry, looked up): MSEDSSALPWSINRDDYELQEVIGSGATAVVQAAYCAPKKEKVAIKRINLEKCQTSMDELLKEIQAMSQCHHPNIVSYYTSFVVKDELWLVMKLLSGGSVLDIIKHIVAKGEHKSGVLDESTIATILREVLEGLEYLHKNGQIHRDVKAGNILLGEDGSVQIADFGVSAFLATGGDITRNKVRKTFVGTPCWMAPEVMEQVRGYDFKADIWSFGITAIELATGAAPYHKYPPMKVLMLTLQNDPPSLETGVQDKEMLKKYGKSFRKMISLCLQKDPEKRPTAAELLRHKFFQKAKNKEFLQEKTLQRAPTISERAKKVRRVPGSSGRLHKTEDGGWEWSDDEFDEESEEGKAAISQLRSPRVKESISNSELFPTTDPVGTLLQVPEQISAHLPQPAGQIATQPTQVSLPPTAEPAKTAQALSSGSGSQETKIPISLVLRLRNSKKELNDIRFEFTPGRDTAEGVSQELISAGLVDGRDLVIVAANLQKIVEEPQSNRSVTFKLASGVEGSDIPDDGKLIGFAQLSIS
Chain of RPS6KA6 KD2 (human) (Q9UK32 whole entry, looked up): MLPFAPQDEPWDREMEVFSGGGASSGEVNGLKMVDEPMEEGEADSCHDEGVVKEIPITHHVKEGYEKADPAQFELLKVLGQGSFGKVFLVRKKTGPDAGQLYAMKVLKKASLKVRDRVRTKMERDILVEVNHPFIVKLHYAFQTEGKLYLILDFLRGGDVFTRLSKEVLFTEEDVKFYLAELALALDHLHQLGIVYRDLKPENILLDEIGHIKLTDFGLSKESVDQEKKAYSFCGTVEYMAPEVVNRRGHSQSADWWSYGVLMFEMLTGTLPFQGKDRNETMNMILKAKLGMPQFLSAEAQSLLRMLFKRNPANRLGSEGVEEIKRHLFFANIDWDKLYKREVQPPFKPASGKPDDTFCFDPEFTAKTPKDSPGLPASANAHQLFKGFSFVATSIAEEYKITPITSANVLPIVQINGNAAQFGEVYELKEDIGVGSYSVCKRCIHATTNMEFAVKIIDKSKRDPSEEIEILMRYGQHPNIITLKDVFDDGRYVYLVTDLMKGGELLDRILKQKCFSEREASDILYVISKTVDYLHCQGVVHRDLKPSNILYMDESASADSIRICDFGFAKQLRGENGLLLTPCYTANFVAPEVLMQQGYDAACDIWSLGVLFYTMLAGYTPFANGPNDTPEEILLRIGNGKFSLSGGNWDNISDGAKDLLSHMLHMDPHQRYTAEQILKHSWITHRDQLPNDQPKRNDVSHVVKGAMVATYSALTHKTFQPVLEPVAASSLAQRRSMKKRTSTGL
Chain of MAPK8 (human) (P45983 whole entry, looked up): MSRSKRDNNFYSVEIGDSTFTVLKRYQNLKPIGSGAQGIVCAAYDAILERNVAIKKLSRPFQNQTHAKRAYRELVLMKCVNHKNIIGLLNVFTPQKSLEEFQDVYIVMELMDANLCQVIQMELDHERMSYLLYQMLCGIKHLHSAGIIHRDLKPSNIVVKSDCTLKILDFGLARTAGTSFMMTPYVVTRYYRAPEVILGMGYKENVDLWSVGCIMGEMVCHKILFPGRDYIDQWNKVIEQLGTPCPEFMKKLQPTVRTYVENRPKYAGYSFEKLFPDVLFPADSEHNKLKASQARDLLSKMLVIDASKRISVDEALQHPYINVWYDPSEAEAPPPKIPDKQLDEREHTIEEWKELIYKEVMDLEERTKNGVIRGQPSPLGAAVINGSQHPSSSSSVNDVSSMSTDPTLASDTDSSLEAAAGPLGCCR
Chain of NEK11 (human) (Q8NG66 whole entry, looked up): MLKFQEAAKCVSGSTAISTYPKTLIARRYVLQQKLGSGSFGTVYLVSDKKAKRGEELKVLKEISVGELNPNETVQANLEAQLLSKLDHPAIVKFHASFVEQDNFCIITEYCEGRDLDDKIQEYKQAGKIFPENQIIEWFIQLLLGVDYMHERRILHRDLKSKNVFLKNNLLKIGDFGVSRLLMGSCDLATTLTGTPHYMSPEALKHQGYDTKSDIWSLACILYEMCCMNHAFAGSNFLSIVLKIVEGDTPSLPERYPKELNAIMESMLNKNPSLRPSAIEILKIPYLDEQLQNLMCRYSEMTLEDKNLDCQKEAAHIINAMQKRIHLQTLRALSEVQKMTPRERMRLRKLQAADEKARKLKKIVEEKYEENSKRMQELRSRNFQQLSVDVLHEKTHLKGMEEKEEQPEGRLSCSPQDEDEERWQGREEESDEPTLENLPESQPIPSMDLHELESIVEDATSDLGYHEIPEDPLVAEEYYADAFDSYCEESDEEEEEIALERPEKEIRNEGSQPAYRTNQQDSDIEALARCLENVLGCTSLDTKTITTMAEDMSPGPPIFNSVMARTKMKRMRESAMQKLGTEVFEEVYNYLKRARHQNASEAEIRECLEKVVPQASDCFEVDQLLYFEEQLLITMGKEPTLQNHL
Chain of MKNK2 (human) (Q9HBH9 whole entry, looked up): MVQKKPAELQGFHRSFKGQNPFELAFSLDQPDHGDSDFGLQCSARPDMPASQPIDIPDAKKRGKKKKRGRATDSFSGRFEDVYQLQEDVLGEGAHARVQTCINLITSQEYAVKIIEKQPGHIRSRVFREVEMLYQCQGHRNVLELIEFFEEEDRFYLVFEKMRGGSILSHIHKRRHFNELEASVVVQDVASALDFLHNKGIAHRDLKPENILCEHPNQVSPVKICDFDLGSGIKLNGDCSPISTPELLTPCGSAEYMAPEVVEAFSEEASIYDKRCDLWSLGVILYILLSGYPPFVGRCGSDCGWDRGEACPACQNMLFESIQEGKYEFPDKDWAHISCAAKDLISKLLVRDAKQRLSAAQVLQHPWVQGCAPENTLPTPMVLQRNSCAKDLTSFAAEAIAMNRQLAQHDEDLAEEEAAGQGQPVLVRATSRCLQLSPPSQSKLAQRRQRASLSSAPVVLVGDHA
Chain of LCK (human) (P06239 whole entry, looked up): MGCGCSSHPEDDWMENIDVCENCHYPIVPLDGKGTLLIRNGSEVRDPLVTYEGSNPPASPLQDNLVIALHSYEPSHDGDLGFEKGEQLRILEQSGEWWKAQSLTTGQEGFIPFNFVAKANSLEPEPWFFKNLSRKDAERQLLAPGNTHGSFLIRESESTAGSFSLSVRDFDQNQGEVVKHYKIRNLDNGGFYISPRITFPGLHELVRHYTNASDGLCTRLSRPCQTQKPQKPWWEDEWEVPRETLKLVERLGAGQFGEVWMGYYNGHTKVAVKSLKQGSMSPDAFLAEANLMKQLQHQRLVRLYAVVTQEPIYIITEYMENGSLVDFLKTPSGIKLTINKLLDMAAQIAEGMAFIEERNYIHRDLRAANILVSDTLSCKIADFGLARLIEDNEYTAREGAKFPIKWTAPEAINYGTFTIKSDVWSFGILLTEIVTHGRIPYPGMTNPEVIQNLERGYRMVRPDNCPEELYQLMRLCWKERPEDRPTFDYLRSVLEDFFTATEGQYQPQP
Chain of IKBKE (human) (Q14164 whole entry, looked up): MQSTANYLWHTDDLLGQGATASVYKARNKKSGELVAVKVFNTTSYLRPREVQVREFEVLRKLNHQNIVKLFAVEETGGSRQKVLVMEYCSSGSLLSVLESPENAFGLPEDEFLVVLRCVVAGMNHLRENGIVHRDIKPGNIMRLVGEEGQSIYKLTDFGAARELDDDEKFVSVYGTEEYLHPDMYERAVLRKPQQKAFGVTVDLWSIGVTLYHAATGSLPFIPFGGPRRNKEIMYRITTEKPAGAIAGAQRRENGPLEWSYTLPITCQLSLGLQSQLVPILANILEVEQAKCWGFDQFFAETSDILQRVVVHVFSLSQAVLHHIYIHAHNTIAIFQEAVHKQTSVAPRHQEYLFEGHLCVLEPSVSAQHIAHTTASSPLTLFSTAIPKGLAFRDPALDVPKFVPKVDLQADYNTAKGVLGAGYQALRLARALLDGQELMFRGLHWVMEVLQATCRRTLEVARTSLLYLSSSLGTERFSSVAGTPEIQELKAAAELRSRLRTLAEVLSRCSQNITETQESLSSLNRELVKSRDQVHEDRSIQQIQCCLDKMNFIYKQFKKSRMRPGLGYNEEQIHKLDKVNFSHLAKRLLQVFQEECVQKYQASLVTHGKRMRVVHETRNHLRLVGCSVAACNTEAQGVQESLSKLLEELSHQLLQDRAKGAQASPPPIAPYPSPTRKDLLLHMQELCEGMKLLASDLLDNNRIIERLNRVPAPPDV

| SMILES | kinase still bound, per cent of control (AKT1 (human)) | kinase still bound, per cent of control (AURKC (human)) | kinase still bound, per cent of control (MAPK8 (human)) | kinase still bound, per cent of control (FES (human)) | kinase still bound, per cent of control (DSTYK (human)) | kinase still bound, per cent of control (MKNK2 (human)) | kinase still bound, per cent of control (CAMK4 (human)) | kinase still bound, per cent of control (ACVRL1 (human)) | kinase still bound, per cent of control (PKN2 (human)) | kinase still bound, per cent of control (EPHA3 (human)) | kinase still bound, per cent of control (SRPK2 (human)) | kinase still bound, per cent of control (NEK1 (human)) | kinase still bound, per cent of control (ERN1 (human)) | kinase still bound, per cent of control (PAK7 (human)) | kinase still bound, per cent of control (PDGFRB (human)) | kinase still bound, per cent of control (FLT1 (human)) | kinase still bound, per cent of control (CSNK1G3 (human)) | kinase still bound, per cent of control (NEK11 (human)) | kinase still bound, per cent of control (EPHA4 (human)) | kinase still bound, per cent of control (CDK4 CCND1 (human)) | other results |
| --- | --- | --- | --- | --- | --- | --- | --- | --- | --- | --- | --- | --- | --- | --- | --- | --- | --- | --- | --- | --- | --- |
| O=C(Nc1cccc(Nc2ncc(Br)c(NCCc3cnc[nH]3)n2)c1)N1CCCC1 | 100% | 0% | 0.2% | 33% | 36% | 0.1% | 100% | 100% | 4.6% | 21% | 5.4% | 30% | 34% | 1.6% | 0% | 0.6% | 88% | 85% | 100% | 0.25% | kinase still bound, per cent of control (MATK (human)): 40%; kinase still bound, per cent of control (CDK11B (human)): 66%; kinase still bound, per cent of control (CAMKK1 (human)): 8.8%; kinase still bound, per cent of control (SRMS (human)): 37%; kinase still bound, per cent of control (EPHA7 (human)): 44%; kinase still bound, per cent of control (IRAK1 (human)): 0.25%; kinase still bound, per cent of control (CPK1 (P.falciparum)): 3.8%; kinase still bound, per cent of control (STK32C (human)): 100%; kinase still bound, per cent of control (LCK (human)): 3.4%; kinase still bound, per cent of control (IKBKE (human)): 4.6%; kinase still bound, per cent of control (TNK2 (human)): 18%; kinase still bound, per cent of control (RIPK1 (human)): 18%; kinase still bound, per cent of control (MAP3K13 (human)): 9.9%; kinase still bound, per cent of control (ACVR1 (human)): 76%; kinase still bound, per cent of control (MAP3K12 (human)): 21%; kinase still bound, per cent of control (MAP4K5 (human)): 9.6%; kinase still bound, per cent of control (OXSR1 (human)): 25%; kinase still bound, per cent of control (RPS6KA6 KD2 (human)): 10%; kinase still bound, per cent of control [1]: 0.1%; kinase still bound, per cent of control (MAP2K4 (human)): 0.3% |
| NC(=O)Nc1cc(-c2cccc(F)c2)sc1C(=O)N[C@@H]1CCCNC1 | 3.2% | 0.7% | 29% | 0.65% | 1.3% | 0% | 0.15% | 76% | 38% | 0.2% | 4.4% | 24% | 25% | 0% | 0% | 0.1% | 4.6% | 100% | 3.4% | 75% | kinase still bound, per cent of control (MATK (human)): 34%; kinase still bound, per cent of control (CDK11B (human)): 100%; kinase still bound, per cent of control (CAMKK1 (human)): 7%; kinase still bound, per cent of control (SRMS (human)): 0%; kinase still bound, per cent of control (EPHA7 (human)): 0.1%; kinase still bound, per cent of control (IRAK1 (human)): 0%; kinase still bound, per cent of control (CPK1 (P.falciparum)): 0.1%; kinase still bound, per cent of control (STK32C (human)): 53%; kinase still bound, per cent of control (LCK (human)): 0%; kinase still bound, per cent of control (IKBKE (human)): 3.6%; kinase still bound, per cent of control (TNK2 (human)): 0.85%; kinase still bound, per cent of control (RIPK1 (human)): 100%; kinase still bound, per cent of control (MAP3K13 (human)): 7%; kinase still bound, per cent of control (ACVR1 (human)): 4%; kinase still bound, per cent of control (MAP3K12 (human)): 9.7%; kinase still bound, per cent of control (MAP4K5 (human)): 0.4%; kinase still bound, per cent of control (OXSR1 (human)): 0.45%; kinase still bound, per cent of control (RPS6KA6 KD2 (human)): 1.2%; kinase still bound, per cent of control [1]: 0%; kinase still bound, per cent of control (MAP2K4 (human)): 2.2% |
